# Test results reported in ChEMBL document CHEMBL3864122, “Antibacterial sulfur-containing platensimycin and platencin congeners from Streptomyces platensis SB12029” (2016).
# What was measured:
# [1] = tested on: Micrococcus luteus; experiment: Antibacterial activity against Micrococcus luteus ATCC 9431 measured after 18 hrs by broth dilution method; format: functional; details: ATCC 9431, 18 h
# [2] = tested on: Staphylococcus aureus; experiment: Antibacterial activity against methicillin-sensitive Staphylococcus aureus ATCC 25923 measured after 18 hrs by broth dilution method; format: functional; details: ATCC 25923, 18 h
MIC [1],MIC [2],Structure (SMILES)
0.28 µM,0.56 µM,C[C@]12C[C@@]34C=CC(=O)[C@@](C)(CCC(=O)Nc5c(O)ccc(C(=O)S[C@H]6CC(=O)[C@@](C)(CCC(=O)Nc7c(O)ccc(C(=O)O)c7O)[C@@H]7[C@@H]8C[C@@H]9C[C@]67C[C@]9(C)O8)c5O)[C@@H]3[C@H](C[C@@H]1C4)O2
64 µg/mL,> 64 µg/mL,COc1ccc(C(=O)SC)c(OC)c1NC(=O)CC[C@]1(C)C(=O)C=C[C@]23C[C@H]4C[C@H](O[C@@]4(C)C2)[C@H]31
1.13 µM,1.13 µM,C[C@]12C[C@@]34C=CC(=O)[C@@](C)(CCC(=O)Nc5c(O)ccc(C(=O)O)c5O)[C@@H]3[C@H](C[C@@H]1C4)O2
